Source: patent US12559529B2, “NPY2 receptor agonists” (Boehringer Ingelheim International GmbH, priority 2019, dated 2026)
*1 amine or outer side, *2 acyl side, *3 side chain or, on linkers, in order; H or OH if unused. Where a SMILES comes first, the peptide text is derived from it. Side-chain parts run from the residue outwards. The star is where a group is joined. C18 diacid = O=C(O)CCCCCCCCCCCCCCCCC(=O)*; γGlu = O=C(O)[C@H](CCC(=O)[*:2])N[*:1]; Isovaleryl = CC(C)CC(=O)*; AEEA = NCCOCCOCC(=O)O

Molecular target: T1, Human Neuropeptide Y2 Receptor (Homo sapiens, UniProt P49146)
T1 construct: purchased CHEMICON HTS066M
T1 sequence (P49146 1-381): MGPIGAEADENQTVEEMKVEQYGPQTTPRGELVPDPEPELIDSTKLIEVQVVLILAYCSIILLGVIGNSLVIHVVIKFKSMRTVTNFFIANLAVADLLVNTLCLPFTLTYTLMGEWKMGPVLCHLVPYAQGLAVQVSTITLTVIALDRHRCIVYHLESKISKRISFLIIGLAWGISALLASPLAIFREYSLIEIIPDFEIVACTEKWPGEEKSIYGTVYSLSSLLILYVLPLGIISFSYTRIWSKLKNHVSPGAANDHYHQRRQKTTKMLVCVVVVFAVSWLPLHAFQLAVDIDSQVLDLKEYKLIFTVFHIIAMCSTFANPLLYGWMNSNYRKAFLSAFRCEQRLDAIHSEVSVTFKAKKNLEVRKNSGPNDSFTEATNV
Test: Radioligand binding competition assay (RLB)
Conditions: Table 3; human 125I-PYY (1-36) 0.02 nM, Y2 receptor membranes; read-out: Ki
Summary of the method: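 IC50 values come from nonlinear regression of sigmoidal dose-response curves of filter-bound radioactivity. Peptides competed with radioligand at human Y2 receptor membranes (0.5 μg protein/well) for 2 h at room temperature in pH 7.4 HEPES buffer containing Mg2+, Ca2+ and 0.2% ovalbumin.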

CC(C)CC(=O)N[C@@H](C)C(=O)N1CCC[C@H]1C(=O)N[C@@H](CCC(=O)O)C(=O)N[C@@H](CCCCNC(=O)COCCOCCNC(=O)COCCOCCNC(=O)CC[C@H](NC(=O)CCCCCCCCCCCCCCCCC(=O)O)C(=O)O)C(=O)N1CCC[C@H]1C(=O)N[C@@H](CCC(=O)O)C(=O)N[C@@H](C)C(=O)N[C@@H](CC(=O)O)C(=O)N[C@@H](C)C(=O)N[C@@H](CO)C(=O)N1CCC[C@H]1C(=O)N[C@@H](CCC(=O)O)C(=O)N[C@@H](CCC(=O)O)C(=O)N[C@@H](CC(C)C)C(=O)N[C@@H](CCC(N)=O)C(=O)N[C@@H](CCCNC(=N)N)C(=O)N[C@@H](Cc1ccc(O)cc1)C(=O)N[C@@H](CCC(=O)O)C(=O)N[C@H](C(=O)N[C@@H](CO)C(=O)N[C@@H](CC(C)C)C(=O)N[C@@H](CCCNC(=N)N)C(=O)N[C@@H](Cc1c[nH]cn1)C(=O)N[C@@H](Cc1ccc(O)cc1)C(=O)N[C@@H](Cc1ccc(O)cc1)C(=O)N[C@@H](CC(N)=O)C(=O)N[C@@H](Cc1c[nH]c2ccccc12)C(=O)N[C@@H](CC(C)C)C(=O)N[C@H](C(=O)N[C@@H](CCCNC(=N)N)C(=O)N[C@@H](CCC(N)=O)C(=O)N[C@@H](CCCNC(=N)N)C(=O)N[C@@H](Cc1ccc(O)cc1)C(N)=O)[C@@H](C)O)C(C)C [Compound 86, N{alpha-4}-(3-methylbutanoyl)-N{epsilon-7}-[2-(2-{2-[2-(2-{2-[(4S)-4-carboxy-4-(17-carboxyheptadecanamido)butanamido]ethoxy}ethoxy)acetamido]ethoxy}ethoxy)acetamido]-[4A,7K,9E,10A,18Q,21E,22V,28Y,30W,31L]hPYY (4-36)] (Isovaleryl-APEK([AEEA-AEEA-γGlu-C18 diacid])PEADASPEELQRYEVSLRHYYNWLTRQRY-NH2)
Ki: 1.19 nM

CC(C)CC(=O)N[C@@H](C)C(=O)N1CCC[C@H]1C(=O)N[C@@H](CCC(=O)O)C(=O)N[C@@H](CCCCNC(=O)COCCOCCNC(=O)COCCOCCNC(=O)CC[C@H](NC(=O)CCCCCCCCCCCCCCCCC(=O)O)C(=O)O)C(=O)N1CCC[C@H]1C(=O)N[C@@H](CCC(=O)O)C(=O)N[C@@H](CCC(=O)O)C(=O)N[C@@H](CC(=O)O)C(=O)N[C@@H](CO)C(=O)N[C@@H](CO)C(=O)N1CCC[C@H]1C(=O)N[C@@H](C)C(=O)N[C@@H](CCC(=O)O)C(=O)N[C@@H](CC(C)C)C(=O)N[C@@H](CCC(N)=O)C(=O)N[C@@H](CCCNC(=N)N)C(=O)N[C@@H](Cc1ccc(O)cc1)C(=O)N[C@@H](Cc1ccc(O)cc1)C(=O)N[C@H](C(=O)N[C@@H](CO)C(=O)N[C@@H](CC(C)C)C(=O)N[C@@H](CCCNC(=N)N)C(=O)N[C@@H](Cc1c[nH]cn1)C(=O)N[C@@H](Cc1ccc(O)cc1)C(=O)N[C@@H](Cc1ccc(O)cc1)C(=O)N[C@@H](CC(N)=O)C(=O)N[C@@H](Cc1c[nH]c2ccccc12)C(=O)N[C@@H](CC(C)C)C(=O)N[C@H](C(=O)N[C@@H](CCCNC(=N)N)C(=O)N[C@@H](CCC(N)=O)C(=O)N[C@@H](CCCNC(=N)N)C(=O)N[C@@H](Cc1ccc(O)cc1)C(N)=O)[C@@H](C)O)C(C)C [Compound 87, N{alpha-4}-(3-methylbutanoyl)-N{epsilon-7}-[2-(2-{2-[2-(2-{2-[(4S)-4-carboxy-4-(17-carboxyheptadecanamido)butanamido]ethoxy}ethoxy)acetamido]ethoxy}ethoxy)acetamido]-[4A,7K,9E,12S,15A,18Q,22V,28Y,30W,31L]hPYY (4-36)] (Isovaleryl-APEK([AEEA-AEEA-γGlu-C18 diacid])PEEDSSPAELQRYYVSLRHYYNWLTRQRY-NH2)
Ki: 1.97 nM

CC(C)CC(=O)N[C@@H](C)C(=O)N1CCC[C@H]1C(=O)N[C@@H](CCC(=O)O)C(=O)N[C@@H](CCCCNC(=O)COCCOCCNC(=O)COCCOCCNC(=O)CC[C@H](NC(=O)CCCCCCCCCCCCCCCCC(=O)O)C(=O)O)C(=O)N1CCC[C@H]1C(=O)N[C@@H](CCC(=O)O)C(=O)N[C@@H](CCC(=O)O)C(=O)N[C@@H](CCC(=O)O)C(=O)N[C@@H](C)C(=O)N[C@@H](CCC(=O)O)C(=O)N1CCC[C@H]1C(=O)N[C@@H](CCC(=O)O)C(=O)N[C@@H](CCC(=O)O)C(=O)N[C@@H](CC(C)C)C(=O)N[C@@H](CCC(N)=O)C(=O)N[C@@H](CCCNC(=N)N)C(=O)N[C@@H](Cc1ccc(O)cc1)C(=O)N[C@@H](Cc1ccc(O)cc1)C(=O)N[C@H](C(=O)N[C@@H](CO)C(=O)N[C@@H](CC(C)C)C(=O)N[C@@H](CCCNC(=N)N)C(=O)N[C@@H](Cc1c[nH]cn1)C(=O)N[C@@H](Cc1ccc(O)cc1)C(=O)N[C@@H](Cc1ccc(O)cc1)C(=O)N[C@@H](CC(N)=O)C(=O)N[C@@H](Cc1c[nH]c2ccccc12)C(=O)N[C@@H](CC(C)C)C(=O)N[C@H](C(=O)N[C@@H](CCCNC(=N)N)C(=O)N[C@@H](CCC(N)=O)C(=O)N[C@@H](CCCNC(=N)N)C(=O)N[C@@H](Cc1ccc(O)cc1)C(N)=O)[C@@H](C)O)C(C)C [Compound 89, N{alpha-4}-(3-methylbutanoyl)-N{epsilon-7}-[2-(2-{2-[2-(2-{2-[(4S)-4-carboxy-4-(17-carboxyheptadecanamido)butanamido]ethoxy}ethoxy)acetamido]ethoxy}ethoxy)acetamido]-[4A,7K,9E,11E,13E,18Q,22V,28Y,30W,31L]hPYY (4-36)]
Ki: 9.61 nM

CC(C)CC(=O)N[C@@H](C)C(=O)N1CCC[C@H]1C(=O)N[C@@H](CCC(=O)O)C(=O)N[C@@H](CCCCNC(=O)COCCOCCNC(=O)COCCOCCNC(=O)CC[C@H](NC(=O)CCCCCCCCCCCCCCCCC(=O)O)C(=O)O)C(=O)N1CCC[C@H]1C(=O)N[C@@H](CCC(=O)O)C(=O)N[C@@H](CCC(=O)O)C(=O)N[C@@H](CC(=O)O)C(=O)N[C@H](C(=O)N[C@@H](CO)C(=O)N1CCC[C@H]1C(=O)N[C@@H](CCC(=O)O)C(=O)N[C@@H](CCC(=O)O)C(=O)N[C@@H](CC(C)C)C(=O)N[C@@H](CCC(N)=O)C(=O)N[C@@H](CCCNC(=N)N)C(=O)N[C@@H](Cc1ccc(O)cc1)C(=O)N[C@@H](Cc1ccc(O)cc1)C(=O)N[C@H](C(=O)N[C@@H](CO)C(=O)N[C@@H](CC(C)C)C(=O)N[C@@H](CCCNC(=N)N)C(=O)N[C@@H](Cc1c[nH]cn1)C(=O)N[C@@H](Cc1ccc(O)cc1)C(=O)N[C@@H](Cc1ccc(O)cc1)C(=O)N[C@@H](CC(N)=O)C(=O)N[C@@H](Cc1c[nH]c2ccccc12)C(=O)N[C@@H](CC(C)C)C(=O)N[C@H](C(=O)N[C@@H](CCCNC(=N)N)C(=O)N[C@@H](CCC(N)=O)C(=O)N[C@@H](CCCNC(=N)N)C(=O)N[C@@H](Cc1ccc(O)cc1)C(N)=O)[C@@H](C)O)C(C)C)[C@@H](C)O [Compound 92, N{alpha-4}-(3-methylbutanoyl)-N{epsilon-7}-[2-(2-{2-[2-(2-{2-[(4S)-4-carboxy-4-(17-carboxyheptadecanamido)butanamido]ethoxy}ethoxy)acetamido]ethoxy}ethoxy)acetamido]-[4A,7K,9E,12T,18Q,22V,28Y,30W,31L]hPYY (4-36)]
Ki: 1.57 nM

CC(C)CC(=O)N[C@@H](C)C(=O)N1CCC[C@H]1C(=O)N[C@@H](CCC(=O)O)C(=O)N[C@@H](CCCCNC(=O)COCCOCCNC(=O)COCCOCCNC(=O)CC[C@H](NC(=O)CCCCCCCCCCCCCCCCC(=O)O)C(=O)O)C(=O)N1CCC[C@H]1C(=O)N[C@@H](CCC(=O)O)C(=O)N[C@@H](CCC(=O)O)C(=O)N[C@@H](CC(=O)O)C(=O)N[C@@H](C)C(=O)N[C@@H](CO)C(=O)N1CCC[C@H]1C(=O)N[C@@H](CCC(=O)O)C(=O)N[C@@H](CCC(=O)O)C(=O)N[C@H](C(=O)N[C@@H](CCC(N)=O)C(=O)N[C@@H](CCCNC(=N)N)C(=O)N[C@@H](Cc1ccc(O)cc1)C(=O)N[C@@H](Cc1ccc(O)cc1)C(=O)N[C@H](C(=O)N[C@@H](CCC(=O)O)C(=O)N[C@@H](CC(C)C)C(=O)N[C@@H](CCCNC(=N)N)C(=O)N[C@@H](Cc1c[nH]cn1)C(=O)N[C@@H](Cc1ccc(O)cc1)C(=O)N[C@@H](Cc1ccc(O)cc1)C(=O)N[C@@H](CC(N)=O)C(=O)N[C@@H](Cc1c[nH]c2ccccc12)C(=O)N[C@@H](CC(C)C)C(=O)N[C@H](C(=O)N[C@@H](CCCNC(=N)N)C(=O)N[C@@H](CCC(N)=O)C(=O)N[C@@H](CCCNC(=N)N)C(=O)N[C@@H](Cc1ccc(O)cc1)C(N)=O)[C@@H](C)O)C(C)C)[C@@H](C)O [Compound 94, N{alpha-4}-(3-methylbutanoyl)-N{epsilon-7}-[2-(2-{2-[2-(2-{2-[(4S)-4-carboxy-4-(17-carboxyheptadecanamido)butanamido]ethoxy}ethoxy)acetamido]ethoxy}ethoxy)acetamido]-[4A,7K,9E,17T,18Q,22V,23E,28Y,30W,31L]hPYY (4-36)]
Ki: 2.07 nM
